Assay results from patent US20260132165A1, “MODIFIED NUCLEOSIDE ANALOGUE AND USE THEREOF, AND NUCLEOSIDE ANALOGUE-CONTAINING DOUBLE-STRANDED OLIGONUCLEOTIDE AND USE THEREOF” (RIGERNA THERAPEUTICS (BEIJING) CO., LTD., priority 2023, published 2026).
Strand notation (5' to 3'): a small letter for the sugar, then the base; units joined by * are phosphorothioate-linked, units joined directly phosphodiester-linked; [ ] holds rarer units or linkages, { } end groups; capitals alone tell only the bases. [Uhd] = commercial nucleoside analogue vector Uhd (Shanghai Hongene), the reference conjugate, placed in the sense strand; [NM031] = nucleoside analogue NM031 of the disclosure, C16 lipid conjugate (uridine-based); {VP} = vinylphosphonate on the antisense 5' end; e = 2'-O-(2-methoxyethyl) (MOE); m = 2'-O-methyl; f = 2'-fluoro

How the values were obtained:
[1] = test system: target gene SOD1; test: Test Example 5: inhibitory activity of lipid conjugated siRNA sequences on SOD1 by intrathecal administration to rats; format: in vivo, SD rats; parameters: key to Lumbar segmen Mean value of inhibition rate / Cortex Mean value of inhibition rate / Thoracic segment Mean value of inhibition rate / Cervical segment Mean value of inhibition rate / Cerebellum Mean value of inhibition rate / Hippocampus Mean value of inhibition rate: inhibition rate of SOD1 mRNA, calculated by the ΔΔCt method; conditions: intrathecal, 900 μg per rat, D7; for Cortex Mean value of inhibition rate: cerebral cortex; for Cervical segment Mean value of inhibition rate: spinal cord cervical segment; for Lumbar segmen Mean value of inhibition rate: spinal cord lumbar segment; for Thoracic segment Mean value of inhibition rate: spinal cord thoracic segment
Protocol: 6-8 Week-old SD rats were randomly grouped by body weight. Rats in each group were administered with siRNA by intrathecal administration, with an administration dose of 900 μg per rat. Injection was administered from rat spinal cord L5-L6, with an administration volume of 40 μL. Needle was retained for 2 min after completion of injection, and then slowly withdrawn. PBS control group was administered with the same volume of siRNA conjugate-free PBS solution. The day of administration was recorded as 0 day (D0), and the rats were sacrificed at observation point after administration. Different segments of spinal cord and different regions of brain were respectively taken and stored in the RNAlater.
(§1) RNA extraction: the above tissue samples were taken out from the RNAlater, and smashed for 60 s in Tissuelyser type II full-automatic tissue homogenizer, and total RNAs of various tissue samples were extracted using the full-automatic nucleic acid extraction instrument and the nucleic acid extraction kit from Zhejiang Hanwei Science and Technology Co. Ltd. according to methods described in instructions.
(§2) Reverse transcription reaction: 1 μg of the extracted total RNAs of the tissue samples were taken, and configured into 20 μL of reverse transcription system according to a method described in kit instructions by using a reverse transcription kit (Reverse Transcription System, A3500) from Promega Corporation and selecting Oligo (dT)15 reverse transcription primers, and the reverse transcription reaction was completed. After the reaction was ended, 80 μL of RNase-Free water was added into the reverse transcription system to provide cDNA solution for Real-time PCR detection.
(§3) Real-time PCR detection: 20 μL of Real-time PCR reaction system per PCR detection well was configured according to a method described in kit instructions using SYBR™ Select Master Mix (Catalog number: 4472908) reagent from ABI company. Each detection system contained 5 μL of cDNA template obtained from the above reverse transcription reaction, 10 μL of SYBR™ Select Master Mix, 0.5 μL of 10 μM upstream primers, 0.5 μL of 10 μM downstream primers, and 4 μL of RNase-Free H2O. The configured reaction system was subjected to Real-time PCR amplification on ABI StepOnePlus PCR instrument by a three-step method, wherein an amplification procedure was pre-denaturation at 95° C. for 10 min, then denaturation at 95° C. for 30 s, annealing at 60° C. for 30 s, and extension at 72° C. for 30 s; and processes of denaturation, annealing, and extension were repeated for 40 cycles. Gene expression differences were calculated by the ΔΔCt method after completion of the procedure.
(§4) In the real-time fluorescence quantitative PCR method, relative quantitative calculation of remaining expression level and inhibition rate of gene mRNA of interest in various test groups was performed by the ΔΔCt method, and the calculation method is as follows:
The present example evaluated, by an evaluation method for inhibitory activity on a target gene by intrathecal administration to rats, the inhibitory activity of siRNA sequence RZ899060 with the sense strand with the NM031 conjugation at Position 4 and vector-free siRNA sequence RZ899056, and Uhd conjugated siRNA reference sequence RZ899055 on the target gene SOD1 of interest in spinal cord and brain of rats.
6-8 Week-old SD rats were randomly grouped by body weight, 5 per group, 4 groups in total. Rats in each group were dosed with the above siRNA conjugates by intrathecal administration, with an administration dose of 900 μg per rat, and an administration volume of 40 μL. PBS control group was administered with the same volume of siRNA conjugate-free PBS solution. The day of administration was recorded as 0 day (D0), and the rats were sacrificed on D7 after administration. […]

[2] = test system: target gene SOD1; test: Test Example 4: lipid conjugated siRNA sequences with different carbon chain lengths, SOD1 in mouse brain, lateral ventricle administration; format: in vivo, C57BL/6j mice; parameters: Right hemisphere Mean value of inhibition rate / Left hemisphere Mean value of inhibition rate: unit not given here; conditions: D5; for Left hemisphere Mean value of inhibition rate: left hemisphere (non-administration side); for Left hemisphere Mean value of inhibition rate / Right hemisphere Mean value of inhibition rate: lateral ventricle; for Right hemisphere Mean value of inhibition rate: right hemisphere (administration side)
Protocol: 6-8 Week-old C57BL/6j mice were randomly grouped by body weight. Mice in each group were administered with siRNA by lateral ventricle administration, with an administration dose per mouse depending on a specific test. Taking Bregma in mouse brain as point 0 (origin), coordinates of right ventricle were found using the cerebral stereotaxic apparatus and position was marked on surface of skull (position of lateral ventricle was AP (anteroposterior, bregma anterior and posterior): −0.58 mm, ML (mediolateral, left and right of middle raphe): −1.2 mm, DV (dorsoventral, up and down cerebral dura mater plane): −2.2 mm). A dental electric drill was used to drill in the skull above a position of interest, and then medicament was injected into the lateral ventricle by a micro-dosing pump, wherein a total injection volume was 5 μL, and injection duration was 10 min. Needle was retained for 5 min after completion of injection, and then slowly withdrawn. Afterwards, needle hole was sealed with biomedical glue, and then head skin was adhered. After animals woke up, the animals were returned back to animal house and further fed. PBS control group was administered with the same volume of siRNA-free PBS solution. The day of administration was recorded as 0 day (D0), and the mice were sacrificed at observation point after the administration. Different parts of brain region were respectively taken and stored in the RNAlater.
as §1, §2, §3
In the real-time fluorescence quantitative PCR method, relative quantitative calculation of remaining expression level and inhibition rate of gene mRNA of interest in various test groups was performed by the ΔΔCt method, and the calculation method is as follows: […]

[3] = test system: target gene SOD1; test: Test Example 12: inhibitory activity of lipid conjugated siRNA sequence on SOD1 in mouse eyes (intravitreal administration); format: in vivo, C57BL/6J mice; conditions: intravitreal, right eye, 7.5 μg per mouse, D14
Protocol: as §1, §2, §3, §4
The present test example evaluated, by an evaluation method for inhibitory activity on a target gene in mice, the inhibitory activity of siRNA sequence RZ899091 with the sense strand with the NM074 conjugation at Position 4 and siRNA reference sequence RX899121 without vector conjugation on the target gene SOD1 of interest in mice.
6-8 Week-old C57BL/6J mice were randomly grouped by body weight, 5 in each group and 3 groups in total. Mice in each group were administered with the above siRNA conjugate by intravitreal administration to right eyes of the mice, with an administration dose of 7.5 μg per mouse, and an administration volume of 2 μL. PBS control group was administered with the same volume of siRNA conjugate-free PBS solution. The day of administration was recorded as D0, and the mice were sacrificed at D14 after administration. Administration-side ocular retina, choroid, cornea, sclera and other tissues were respectively taken and stored in the RNAlater. RNA extraction, reverse transcription, and real-time fluorescence quantitative detection were performed on various tissues according to the above method, and gene expression differences were calculated by the above ΔΔCt method.

Substance | Cerebellum Mean value of inhibition rate [1] | Cortex Mean value of inhibition rate [1] | Hippocampus Mean value of inhibition rate [1] | Cervical segment Mean value of inhibition rate [1] | Lumbar segmen Mean value of inhibition rate [1] | Thoracic segment Mean value of inhibition rate [1] | Left hemisphere Mean value of inhibition rate ([2]; 150 μg per mouse) | Right hemisphere Mean value of inhibition rate ([2]; 150 μg per mouse) | also measured
RZ899055: Uhd conjugated siRNA reference sequence; SEQ ID NO: 4 / 22 (sense mU*mU*mU[Uhd]mAmAfUfCfCmUmCmAmCmUmCmUmAmAmA; antisense {VP}-mU*fU*mUmAmGfAmGmUmGmAmGmGmAfUmUfAmAmAmA*mU*mG) | 68.43 | 41.47 | 48.56 | 81.31 | 87.46 | 91.10 |  |  | 
RZ899077: siRNA sequence with the sense strand with the NM201 (C22) conjugation at Position 4; SEQ ID NO: 19 / 24 (sense UUUNAAUCCUCACUCUAAA; antisense UUUAGAGUGAGGAUUAAAAUG; NM201 (C22) conjugate at sense position 4; modified_base 1..2 OTHER; 2'-methoxy and 5'-thiophosphate modified nucleotides; modified_base 3 OTHER; 2'-methoxy modified nucleotide; modified_base 4 OTHER; n is the synthetic nucleotide analog NM201 as described in the disclosure.; modified_base 5..6 OTHER; 2'-methoxy modified nucleotides; modified_base 7..10 OTHER; 2'-fluoro modified nucleotides; modified_base 11..19 OTHER; 2'-methoxy modified ; modified_base 1 OTHER; 2'-methoxy and 5'-thiovinylphosphonate modified nucleotide; modified_base 2 OTHER; 2'-fluoro and 5'-thiophosphate modified …) |  |  |  |  |  |  | 32.81 | 43.33 | 
RX899121: siRNA reference sequence without vector conjugation; SEQ ID NO: 25 / 23 (sense mU*mU*mUmUmAmAfUfCfCfUmCmAmCmUmCmUmAmAmA; antisense {VP}-mU*fU*mUmAmGfAmGmUmGmAmGfGmAfUeUfAmAmAmA*mU*mG) [reference compound] |  |  |  |  |  |  |  |  | Choroid % Mean value of inhibition rate ([3]; choroid): 3.16%; Cornea and sclera % Mean value of inhibition rate ([3]; cornea and sclera): 5.35%; Kidney % Mean value of inhibition rate ([3]; kidney): 2.89%; Liver % Mean value of inhibition rate ([3]; liver): 5.35%; Retina % Mean value of inhibition rate ([3]; retina): 17.47%
RZ899056: vector-free siRNA sequence; SEQ ID NO: 1 / 22 (sense mU*mU*mUmUmAmAfUfCfCmUmCmAmCmUmCmUmAmAmA; antisense {VP}-mU*fU*mUmAmGfAmGmUmGmAmGmGmAfUmUfAmAmAmA*mU*mG) | 50.22 | 33.88 | 41.25 | 70.86 | 87.58 | 89.69 |  |  | 
RZ899092: siRNA sequence with the sense strand with the NM031 (C16) conjugation at Position 4; SEQ ID NO: 14 / 23 (sense mU*mU*mU[NM031]mAmAfUfCfCfUmCmAmCmUmCmUmAmAmA; antisense {VP}-mU*fU*mUmAmGfAmGmUmGmAmGfGmAfUeUfAmAmAmA*mU*mG) |  |  |  |  |  |  | 60.45 | 79.45 | inhibitory activity compared with the vector-free siRNA sequence RX599002 ([2]; left and right hemisphere, lateral ventricle 150 μg per mouse): superior inhibitory activity; activity compared with Uhd conjugated reference sequence RZ899093 and NM200 (C22) conjugated reference sequence RZ899076 ([2]; right hemisphere (administration side) and left hemisphere (non-administration side), 150 μg per mouse): substantially comparable activity in the right hemisphere
RX599002: vector-free siRNA sequence; SEQ ID NO: 17 / 24 (sense mU*mU*mUmUmAmAfUfCfCfUmCmAmCmUmCmUmAmAmA; antisense {VP}-mU*fU*mUmAmGfAmGmUfGmAmGmGmAfUeUfAmAmAmA*mU*mG) [reference compound] |  |  |  |  |  |  | 55.55 | 74.62 | 
